Several values for one entry are separate records, joined by “and”; a condition that tells them apart may be missing. Identical values can stand only once. Activity calls are given as the source filed them.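 How the source made its calls: active means virus-caused cell damage raised over twofold versus untreated cells in three repeats, without toxicity at overlapping doses; inactive means the rest.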
Tested on: PC3 cells, HSV G47-delta CPE, CellTiter-Glo, 96 h
Assay: enhancers of oncolytic HSV cytopathic effect, confirmation, PC3 cells, CellTiter-Glo, secondary (AID 588782);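 on CPE increase: percent rise in virus-caused cell damage over infected cultures given no drug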
Conditions: for outcome / CPE increase: at 10 µM; for CC50: measured here: PC3 cytotoxicity; for CPE increase: stronger effect = higher value

COc1cc(OC)cc(C(=O)OCCCN2CCCN(Cc3ccccc3)CC2)c1
outcome: inactive | CC50: > 100 µM

COc1cc(C(=O)OCCN2CCCN(Cc3ccccc3)CC2)cc(OC)c1OC
outcome: inactive | CC50: > 100 µM

COc1ccc(C(=O)OCCN2CCCN(C)CC2)cc1
CPE increase: 27.1% (inactive) | CC50: > 100 µM

O=C(CCN1CCCN(CCC(=O)Nc2ccccc2)CC1)Nc1ccccc1
outcome: inactive | CC50: > 100 µM

CN1CCN(CCCOC(=O)c2ccccc2)CC1
outcome: inactive | CC50: > 100 µM

COc1ccc(C(=O)OCCN2CCN(C)CC2)cc1
outcome: inactive | CC50: > 100 µM

O=C(/C=C/c1ccc2c(c1)OCO2)N1CCCN(C(=O)/C=C/c2ccc3c(c2)OCO3)CC1
outcome: inactive | CC50: > 100 µM

COc1cc(C(=O)OCCCN2CCCN(C(C)=O)CC2)cc(OC)c1OC
outcome: inactive | CC50: > 100 µM

COc1ccc(C(=O)OCCCN2CCN(CCCOC(=O)c3ccc(OC)cc3)CC2)cc1
outcome: inactive | CC50: > 100 µM

COc1ccc(C(=O)OCCCN2CCOCC2)cc1
CPE increase: 16.9% (inactive) | CC50: > 100 µM

O=C(NCCCN1CCN(CCCNC(=O)c2ccc3c(c2)OCO3)CC1)c1ccc2c(c1)OCO2
CPE increase: 14.4% (inactive) | CC50: > 100 µM

COc1ccc(C(=O)OCCCN2CCCN(CCCOC(=O)c3ccc(OC)cc3)CC2)cc1
outcome: inactive | CC50: > 93 µM

COc1cc(CN2CCCN(Cc3cc(OC)c(OC)c(OC)c3)CC2)cc(OC)c1OC
outcome: inactive | CC50: > 100 µM

O=C(OCCCN1CCN(CCCOC(=O)c2ccc(F)cc2)CC1)c1ccc(F)cc1
outcome: inactive | CC50: > 100 µM

CNCCN(C)CCOC(=O)c1cc(OC)cc(OC)c1
outcome: inactive | CC50: > 100 µM

COc1ccc(C(=O)OCCCN2CCN(C)CC2)cc1
outcome: inactive | CC50: > 100 µM

COc1cc(OC)cc(C(=O)OCCCN2CCCN(C)CC2)c1
outcome: inactive | CC50: > 100 µM

COc1cc(C(=O)OCCN2CCOCC2)cc(OC)c1OC
outcome: inactive | CC50: > 100 µM

CNCCN(C)CCCOC(=O)c1ccc(F)cc1
outcome: inactive | CC50: > 100 µM

COc1cc(C(=O)OCCCN2CCCN(C(=O)c3ccccc3)CC2)cc(OC)c1OC
outcome: inactive | CC50: > 100 µM

COc1cc(C(=O)OCCCN2CCOCC2)cc(OC)c1OC
outcome: inactive | CC50: > 100 µM

CC(=O)NCCCN1CCCN(CCCNC(C)=O)CC1
outcome: inactive | CC50: > 100 µM

COc1cc(C(=O)OCCCN2CCCN(Cc3ccccc3)CC2)cc(OC)c1OC
outcome: inactive | CC50: > 100 µM

COc1ccc(C(=O)OCCCN2CCCN(C)CC2)cc1
outcome: inactive | CC50: > 100 µM

O=C(OCCCN1CCCN(CCCOC(=O)c2ccccc2)CC1)c1ccccc1
outcome: inactive | CC50: > 100 µM

COc1cc(OC)cc(C(=O)OCCCN2CCN(C)CC2)c1
outcome: inactive | CC50: > 100 µM

COc1cc(C(=O)OCCCN2CCCN(CCOC(=O)c3cc(OC)c(OC)c(OC)c3)CC2)cc(OC)c1OC
outcome: inactive | CC50: > 100 µM

CNCCN(C)CCOC(=O)c1cc(OC)c(OC)c(OC)c1
outcome: inactive | CC50: > 100 µM

COc1cc(NC(=O)N2CCCN(C(=O)Nc3cc(OC)c(OC)c(OC)c3)CC2)cc(OC)c1OC
CPE increase: 24.5% (inactive) | CC50: > 100 µM

O=C(OCCCN1CCN(CCCOC(=O)c2ccccc2)CC1)c1ccccc1
outcome: inactive | CC50: > 100 µM

COc1cc(C(=O)OCCN2CCN(CCOC(=O)c3cc(OC)c(OC)c(OC)c3)CC2)cc(OC)c1OC
outcome: inactive | CC50: > 100 µM

COc1cc(OC)cc(C(=O)OCCN2CCCN(CCOC(=O)c3cc(OC)cc(OC)c3)CC2)c1
outcome: inactive | CC50: > 100 µM

COc1cc(C(=O)OCCCN2CCCN(CCCOC(=O)c3cc(OC)c(OC)c(OC)c3)CC2)cc(OC)c1OC
outcome: inactive | CC50: > 100 µM

COc1ccc(C(=O)OCCN2CCCN(Cc3ccccc3)CC2)cc1
outcome: inactive | CC50: > 100 µM

COc1cc(OC)cc(C(=O)OCCCN2CCN(CCCOC(=O)c3cc(OC)cc(OC)c3)CC2)c1
outcome: inactive | CC50: > 94 µM

COc1cc(C(=O)OCCN2CCN(C)CC2)cc(OC)c1OC
outcome: inactive | CC50: > 100 µM

COc1cc(C(=O)OCCN2CCCC2)cc(OC)c1OC
outcome: inactive | CC50: > 100 µM

COc1cc(C(=O)N2CCCN(C(=O)c3cc(OC)c(OC)c(OC)c3)CC2)cc(OC)c1OC
outcome: inactive | CC50: > 100 µM

COc1cc(C(=O)OCCCN2CCCN(C(=O)OC(C)(C)C)CC2)cc(OC)c1OC
outcome: inactive | CC50: > 100 µM

CN1CCCN(CCCOC(=O)c2ccccc2)CC1
outcome: inactive | CC50: > 100 µM

COc1cc(NC(=O)Nc2cc(OC)c(OC)c(OC)c2)cc(OC)c1OC
outcome: inactive | CC50: > 100 µM

O=C(OCCCN1CCCN(CCCOC(=O)c2ccc(F)cc2)CC1)c1ccc(F)cc1
outcome: inactive | CC50: 66.9 µM

O=C(CNc1ccc(F)cc1)CN1CCCN(CC(=O)Nc2ccc(F)cc2)CC1
outcome: inactive | CC50: > 100 µM

COc1cc(OC)cc(C(=O)OCCN2CCOCC2)c1
outcome: inactive | CC50: > 100 µM

COc1cc(C(=O)OCCN2CCCN(CCOC(=O)c3cc(OC)c(OC)c(OC)c3)CC2)cc(OC)c1OC
outcome: inactive | CC50: > 100 µM

COc1cc(OC)cc(C(=O)OCCN2CCCN(C)CC2)c1
outcome: inactive | CC50: > 100 µM

COc1cc(OC)cc(C(=O)OCCN2CCN(C)CC2)c1
outcome: inactive | CC50: > 100 µM

COc1ccc(N2C(=O)CC(N3CCCN(C4CC(=O)N(c5ccc(OC)cc5)C4=O)CC3)C2=O)cc1 (configuration not stated)
outcome: inactive | CC50: > 100 µM

CN1CCN(CCCOC(=O)c2ccc(F)cc2)CC1
outcome: inactive | CC50: > 100 µM

COc1cc(C(=O)OCCCN(C)CCN(C)CCCOC(=O)c2cc(OC)c(OC)c(OC)c2)cc(OC)c1OC
outcome: inactive | CC50: > 100 µM

COc1ccc(C(=O)OCCN2CCCN(CCOC(=O)c3ccc(OC)cc3)CC2)cc1
outcome: inactive | CC50: > 100 µM

COc1ccc(C(=O)OCCCNCCNCCCOC(=O)c2ccc(OC)cc2)cc1
outcome: inactive | CPE increase: 19.8% (inactive) | CC50: > 93 µM and 21.7 µM

COc1cc(C(=O)OCCCN2CCN(C)CC2)cc(OC)c1OC
outcome: inactive | CC50: > 100 µM

NCCCN1CCCN(CCCN)CC1
outcome: inactive | CC50: > 100 µM

O=C(OCCCN1CCOCC1)c1ccc(F)cc1
outcome: inactive | CC50: > 100 µM

CN1CCCN(CCCOC(=O)c2ccc(F)cc2)CC1
outcome: inactive | CC50: > 100 µM

COc1cc(C(=O)OCCCN2CCN(CCCOC(=O)c3cc(OC)c(OC)c(OC)c3)CC2)cc(OC)c1OC
outcome: inactive | CC50: > 100 µM

COc1cc(-c2cn(CCCN3CCCN(CCCn4cc(-c5cc(OC)c(OC)c(OC)c5)nn4)CC3)nn2)cc(OC)c1OC
outcome: inactive | CC50: > 100 µM

COc1cc(C(=O)OCCCN2CCCN(C)CC2)cc(OC)c1OC
outcome: inactive | CC50: > 100 µM

COc1cc(OC)cc(C(=O)OCCCNCCNCCCOC(=O)c2cc(OC)cc(OC)c2)c1
CPE increase: 15.8% (inactive) | CC50: 32.1 µM

COc1ccc(C(=O)OCCN2CCN(CCOC(=O)c3ccc(OC)cc3)CC2)cc1
outcome: inactive | CC50: > 100 µM

COc1cc(C(=O)OCCCN2CCCNCC2)cc(OC)c1OC
outcome: inactive | CC50: > 100 µM

COc1ccc(C(=O)OCCCN2CCCC2)cc1
outcome: inactive | CC50: > 100 µM

COc1cc(OC)cc(C(=O)OCCN2CCN(CCOC(=O)c3cc(OC)cc(OC)c3)CC2)c1
outcome: inactive | CC50: > 100 µM

COc1cc(C(=O)NCCCN2CCCN(CCCNC(=O)c3cc(OC)c(OC)c(OC)c3)CC2)cc(OC)c1OC
CPE increase: 16% (inactive) | CC50: > 100 µM

COc1cc(C(=O)OCCN2CCCN(C)CC2)cc(OC)c1OC
outcome: inactive | CC50: > 100 µM

COc1cc(C(=O)OCCCN2CCCC2)cc(OC)c1OC
outcome: inactive | CC50: > 100 µM

O=C(CN1CCCN(CC(=O)CN2C(=O)c3ccccc3C2=O)CC1)CN1C(=O)c2ccccc2C1=O
outcome: inactive | CC50: > 100 µM

COc1cc(OC)cc(C(=O)OCCN2CCCC2)c1
outcome: inactive | CC50: > 100 µM

COc1cc(COCCCN2CCCN(CCCOCc3cc(OC)c(OC)c(OC)c3)CC2)cc(OC)c1OC
outcome: inactive | CC50: > 100 µM

COc1cccc(C(=O)NCCCN2CCN(CCCNC(=O)c3cccc(OC)c3)CC2)c1
outcome: inactive | CC50: > 100 µM

COc1ccc(C(=O)NCCCN2CCCN(C)CC2)cc1
outcome: inactive | CC50: > 100 µM

CNCCN(C)CCCOC(=O)c1ccc(OC)cc1
outcome: inactive | CC50: > 100 µM
